Legend:
Type in all cases: biochemical
[1] = molecular target: recombinant human PI3Kδ (6-His(p110-p85α)) (Homo sapiens (Human), UniProt O00329); test: Enzymatic activity assay for recombinant human PI3Kδ (ADP-Glo); details: 0.6 nM PI3Kδ, 20 μM ATP, 80 μM DiC8-PIP2, ADP-Glo
Summary of the method: (§1)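 ADP-Glo luminescence after DiC8-PIP2 (80 μM) phosphorylation with 20 μM ATP in 50 mM Tris pH 7.4, 3 mM MgCl2, 2.1 mM DTT, 0.05% CHAPS at room temperature. Enzyme 1.2 nM PI3Kγ or 0.6 nM PI3Kδ; inhibitors pre-incubated 15 min, then 60 min reaction.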

[2] = molecular target: recombinant human PI3Kγ ((aa144-1102)-6His) (Homo sapiens (Human), UniProt P48736); test: Enzymatic activity assay for recombinant human PI3Kγ (ADP-Glo); details: 1.2 nM PI3Kγ, 20 μM ATP, 80 μM DiC8-PIP2, ADP-Glo
recombinant human PI3Kγ ((aa144-1102)-6His), sequence (P48736 144-1102): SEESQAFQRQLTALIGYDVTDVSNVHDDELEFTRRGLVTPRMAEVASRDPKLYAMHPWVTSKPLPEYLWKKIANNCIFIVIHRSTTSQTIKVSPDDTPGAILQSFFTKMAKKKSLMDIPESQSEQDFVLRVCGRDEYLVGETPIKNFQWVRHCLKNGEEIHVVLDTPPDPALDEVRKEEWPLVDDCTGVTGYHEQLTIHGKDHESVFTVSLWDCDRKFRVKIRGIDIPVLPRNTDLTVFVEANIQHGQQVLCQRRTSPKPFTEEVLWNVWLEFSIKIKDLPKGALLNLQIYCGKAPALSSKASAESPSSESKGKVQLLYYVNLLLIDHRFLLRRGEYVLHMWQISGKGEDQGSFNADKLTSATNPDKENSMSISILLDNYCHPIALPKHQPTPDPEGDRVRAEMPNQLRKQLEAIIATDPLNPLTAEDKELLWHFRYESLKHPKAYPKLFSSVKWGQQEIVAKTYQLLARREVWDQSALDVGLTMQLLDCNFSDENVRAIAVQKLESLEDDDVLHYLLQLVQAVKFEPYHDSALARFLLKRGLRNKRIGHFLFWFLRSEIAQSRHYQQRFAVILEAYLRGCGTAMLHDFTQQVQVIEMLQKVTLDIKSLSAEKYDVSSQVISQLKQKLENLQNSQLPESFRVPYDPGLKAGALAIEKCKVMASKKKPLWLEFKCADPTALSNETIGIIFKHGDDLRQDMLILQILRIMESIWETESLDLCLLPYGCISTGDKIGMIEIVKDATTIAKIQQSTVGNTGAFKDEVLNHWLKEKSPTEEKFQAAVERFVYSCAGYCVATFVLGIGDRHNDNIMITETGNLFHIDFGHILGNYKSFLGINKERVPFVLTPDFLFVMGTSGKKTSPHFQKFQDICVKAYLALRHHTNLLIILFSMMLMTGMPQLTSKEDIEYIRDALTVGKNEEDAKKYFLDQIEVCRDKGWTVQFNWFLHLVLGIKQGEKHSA
Summary of the method: as §1

[3] = molecular target: recombinant human PI3Kα (6-His(p110-p85α)) (Homo sapiens (Human), UniProt P42336); test: Enzymatic activity assay for recombinant human PI3Kα (ADP-Glo); details: 1.2 nM PI3Kα, 20 μM ATP, 80 μM DiC8-PIP2, ADP-Glo
recombinant human PI3Kα (6-His(p110-p85α)), sequence (P42336 whole entry): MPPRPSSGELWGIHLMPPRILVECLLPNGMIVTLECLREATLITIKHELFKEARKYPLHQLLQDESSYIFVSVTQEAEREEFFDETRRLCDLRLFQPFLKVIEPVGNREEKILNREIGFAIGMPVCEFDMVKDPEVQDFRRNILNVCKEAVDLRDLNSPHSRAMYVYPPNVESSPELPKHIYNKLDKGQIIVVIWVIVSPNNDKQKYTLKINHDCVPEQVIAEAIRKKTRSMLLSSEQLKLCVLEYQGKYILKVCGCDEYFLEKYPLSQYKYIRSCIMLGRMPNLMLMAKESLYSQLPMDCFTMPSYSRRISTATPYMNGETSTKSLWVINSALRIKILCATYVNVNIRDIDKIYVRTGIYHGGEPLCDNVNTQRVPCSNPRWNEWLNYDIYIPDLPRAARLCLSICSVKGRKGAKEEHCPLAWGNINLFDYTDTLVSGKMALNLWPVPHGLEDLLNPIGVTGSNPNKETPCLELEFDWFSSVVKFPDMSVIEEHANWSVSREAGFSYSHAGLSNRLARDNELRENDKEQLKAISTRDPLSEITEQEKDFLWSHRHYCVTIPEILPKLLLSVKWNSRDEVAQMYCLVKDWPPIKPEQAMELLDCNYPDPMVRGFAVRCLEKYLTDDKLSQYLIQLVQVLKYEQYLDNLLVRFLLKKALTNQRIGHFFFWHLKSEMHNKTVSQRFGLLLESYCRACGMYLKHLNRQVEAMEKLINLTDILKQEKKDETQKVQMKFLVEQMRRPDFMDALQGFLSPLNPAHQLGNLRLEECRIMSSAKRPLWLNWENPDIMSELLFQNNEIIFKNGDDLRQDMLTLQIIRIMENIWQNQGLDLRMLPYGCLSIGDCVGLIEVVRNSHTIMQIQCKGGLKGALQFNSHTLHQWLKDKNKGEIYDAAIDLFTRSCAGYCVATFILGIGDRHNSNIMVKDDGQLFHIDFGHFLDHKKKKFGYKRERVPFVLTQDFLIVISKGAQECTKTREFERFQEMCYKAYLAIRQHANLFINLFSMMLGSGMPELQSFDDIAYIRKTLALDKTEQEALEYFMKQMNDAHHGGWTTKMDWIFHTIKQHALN
recombinant human PI3Kα (6-His(p110-p85α)), sequence (P27986 whole entry partner): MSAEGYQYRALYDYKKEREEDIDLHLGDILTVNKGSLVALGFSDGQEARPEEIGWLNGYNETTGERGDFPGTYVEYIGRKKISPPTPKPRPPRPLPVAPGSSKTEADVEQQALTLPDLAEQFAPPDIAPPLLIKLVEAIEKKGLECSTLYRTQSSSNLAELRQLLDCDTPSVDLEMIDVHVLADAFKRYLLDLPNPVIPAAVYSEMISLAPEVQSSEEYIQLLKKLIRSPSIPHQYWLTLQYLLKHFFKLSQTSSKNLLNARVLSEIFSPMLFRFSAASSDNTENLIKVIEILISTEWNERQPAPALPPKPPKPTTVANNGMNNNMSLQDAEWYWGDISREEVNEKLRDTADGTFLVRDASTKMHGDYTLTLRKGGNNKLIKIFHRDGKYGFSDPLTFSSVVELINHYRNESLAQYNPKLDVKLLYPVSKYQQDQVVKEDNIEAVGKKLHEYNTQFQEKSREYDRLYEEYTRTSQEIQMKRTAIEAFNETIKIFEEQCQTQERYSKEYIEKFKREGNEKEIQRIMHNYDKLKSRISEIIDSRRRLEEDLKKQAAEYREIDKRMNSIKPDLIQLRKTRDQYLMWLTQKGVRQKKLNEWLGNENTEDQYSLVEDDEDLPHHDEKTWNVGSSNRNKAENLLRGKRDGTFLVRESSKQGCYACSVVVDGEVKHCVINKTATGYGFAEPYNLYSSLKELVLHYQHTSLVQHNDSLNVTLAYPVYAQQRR
Summary of the method: (§2)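 ADP-Glo luminescence after DiC8-PIP2 phosphorylation at RT: 80 μM lipid substrate, 20 μM ATP, 1.2 nM enzyme (0.6 nM for δ) in Tris pH 7.4 with MgCl2, DTT, CHAPS. Compounds pre-incubated 15 min with enzyme, then 60 min reaction; DMSO ≤1%.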

[4] = molecular target: recombinant human PI3Kβ (6-His(p110-p85α)) (Homo sapiens (Human), UniProt P42338); test: Enzymatic activity assay for recombinant human PI3Kβ (ADP-Glo); details: 1.2 nM PI3Kβ, 20 μM ATP, 80 μM DiC8-PIP2, ADP-Glo
recombinant human PI3Kβ (6-His(p110-p85α)), sequence (P42338 whole entry): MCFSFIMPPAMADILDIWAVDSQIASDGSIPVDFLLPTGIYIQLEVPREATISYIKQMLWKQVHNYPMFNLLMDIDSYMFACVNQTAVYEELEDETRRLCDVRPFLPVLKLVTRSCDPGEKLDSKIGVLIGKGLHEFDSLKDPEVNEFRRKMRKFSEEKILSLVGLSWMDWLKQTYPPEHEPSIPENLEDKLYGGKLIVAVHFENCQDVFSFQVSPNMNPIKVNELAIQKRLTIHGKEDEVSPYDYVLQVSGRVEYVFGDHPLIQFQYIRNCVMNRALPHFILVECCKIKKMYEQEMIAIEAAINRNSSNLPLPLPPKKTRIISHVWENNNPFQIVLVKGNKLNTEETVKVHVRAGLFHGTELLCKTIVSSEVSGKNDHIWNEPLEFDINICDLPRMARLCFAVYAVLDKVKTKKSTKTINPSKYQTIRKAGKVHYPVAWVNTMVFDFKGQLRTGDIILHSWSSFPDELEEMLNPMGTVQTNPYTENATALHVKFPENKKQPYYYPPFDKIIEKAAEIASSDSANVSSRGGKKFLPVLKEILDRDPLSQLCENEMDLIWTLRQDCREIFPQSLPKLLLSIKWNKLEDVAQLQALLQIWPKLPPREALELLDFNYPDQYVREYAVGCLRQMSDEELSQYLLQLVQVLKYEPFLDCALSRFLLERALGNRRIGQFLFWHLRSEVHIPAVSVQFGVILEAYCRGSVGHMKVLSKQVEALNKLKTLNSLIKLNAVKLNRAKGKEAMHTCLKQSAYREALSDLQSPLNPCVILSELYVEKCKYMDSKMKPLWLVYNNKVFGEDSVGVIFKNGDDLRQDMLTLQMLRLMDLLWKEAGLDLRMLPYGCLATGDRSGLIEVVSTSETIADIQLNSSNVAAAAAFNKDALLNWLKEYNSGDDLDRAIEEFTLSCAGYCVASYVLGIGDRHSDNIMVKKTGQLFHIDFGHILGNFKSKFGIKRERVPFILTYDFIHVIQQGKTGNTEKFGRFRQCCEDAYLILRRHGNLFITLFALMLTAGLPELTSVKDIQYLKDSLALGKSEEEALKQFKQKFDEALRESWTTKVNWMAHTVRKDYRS
recombinant human PI3Kβ (6-His(p110-p85α)), sequence (P27986 whole entry partner): as the sequence (P27986 whole entry partner) above
Summary of the method: as §2

recombinant human PI3Kδ (6-His(p110-p85α)), sequence (O00329 whole entry): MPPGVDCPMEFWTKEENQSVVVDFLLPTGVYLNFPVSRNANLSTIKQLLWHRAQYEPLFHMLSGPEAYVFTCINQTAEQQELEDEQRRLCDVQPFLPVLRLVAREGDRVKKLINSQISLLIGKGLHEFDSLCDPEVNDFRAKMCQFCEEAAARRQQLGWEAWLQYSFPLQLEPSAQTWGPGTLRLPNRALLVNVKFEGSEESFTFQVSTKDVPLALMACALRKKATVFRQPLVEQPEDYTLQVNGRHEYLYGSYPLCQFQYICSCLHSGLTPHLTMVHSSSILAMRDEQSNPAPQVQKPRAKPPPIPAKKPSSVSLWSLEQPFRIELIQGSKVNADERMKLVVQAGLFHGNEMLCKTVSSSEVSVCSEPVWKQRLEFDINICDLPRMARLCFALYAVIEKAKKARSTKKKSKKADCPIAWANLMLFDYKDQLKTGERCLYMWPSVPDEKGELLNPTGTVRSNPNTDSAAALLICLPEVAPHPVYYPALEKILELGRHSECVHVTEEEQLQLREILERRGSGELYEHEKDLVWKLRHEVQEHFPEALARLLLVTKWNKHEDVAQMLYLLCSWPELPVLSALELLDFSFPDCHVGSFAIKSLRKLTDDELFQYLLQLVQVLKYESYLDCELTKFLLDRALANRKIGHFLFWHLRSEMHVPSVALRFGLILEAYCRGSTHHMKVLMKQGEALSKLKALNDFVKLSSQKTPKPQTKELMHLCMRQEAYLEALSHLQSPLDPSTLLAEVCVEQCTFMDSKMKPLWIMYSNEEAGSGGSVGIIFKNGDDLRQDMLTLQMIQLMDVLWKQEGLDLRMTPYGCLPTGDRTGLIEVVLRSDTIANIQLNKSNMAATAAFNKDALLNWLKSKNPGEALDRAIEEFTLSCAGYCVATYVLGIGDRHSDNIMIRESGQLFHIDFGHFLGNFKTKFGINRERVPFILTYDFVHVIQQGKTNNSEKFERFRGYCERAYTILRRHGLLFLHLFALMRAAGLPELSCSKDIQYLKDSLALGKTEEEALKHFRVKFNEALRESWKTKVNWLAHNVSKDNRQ
recombinant human PI3Kδ (6-His(p110-p85α)), sequence (P27986 whole entry partner): as the sequence (P27986 whole entry partner) above

| Structure (SMILES) | IC50 [1] [nM] | IC50 [2] [nM] | IC50 [3] [nM] | IC50 [4] [nM] |
| --- | --- | --- | --- | --- |
| CNS(=O)(=O)c1cc(-c2sc(Nc3cccc(N4CC[C@@H](O)C4=O)n3)nc2C)cc2c1C(=O)N([C@@H](C)C1CC1)C2 [Example 54, 2-[(1S)-1-Cyclopropylethyl]-6-[2-({6-[(3R)-3-hydroxy-2-oxopyrrolidin-1-yl]pyridin-2-yl}amino)-4-methyl-1,3-thiazol-5-yl]-N-methyl-3-oxo-2,3-dihydro-1H-isoindole-4-sulfonamide] | 0.5 | 0.9 | 14 | 325 |
| CNS(=O)(=O)c1cc(-c2sc(Nc3cccc(N4C[C@H](O)CC4=O)n3)nc2C)cc2c1C(=O)N([C@@H](C)C1CC1)C2 [Example 55, 2-[(1S)-1-Cyclopropylethyl]-6-[2-({6-[(4R)-4-hydroxy-2-oxopyrrolidin-1-yl]pyridin-2-yl}amino)-4-methyl-1,3-thiazol-5-yl]-N-methyl-3-oxo-2,3-dihydro-1H-isoindole-4-sulfonamide] | 1.1 | 0.9 | 40 | 386 |
| CNS(=O)(=O)c1cc(-c2sc(Nc3cccc(N4CC[C@H](O)C4=O)n3)nc2C)cc2c1C(=O)N([C@@H](C)C1CC1)C2 [Example 56, 2-[(1S)-1-Cyclopropylethyl]-6-[2-({6-[(3S)-3-hydroxy-2-oxopyrrolidin-1-yl]pyridin-2-yl}amino)-4-methyl-1,3-thiazol-5-yl]-N-methyl-3-oxo-2,3-dihydro-1H-isoindole-4-sulfonamide] | 0.5 | 1 | 26 | 249 |
| CNS(=O)(=O)c1cc(-c2sc(Nc3cccc(N4C(=O)CC[C@H]4CO)n3)nc2C)cc2c1C(=O)N([C@@H](C)C1CC1)C2 [Example 57, 2-[(1S)-1-Cyclopropylethyl]-6-[2-({6-[(2S)-2-(hydroxymethyl)-5-oxopyrrolidin-1-yl]pyridin-2-yl}amino)-4-methyl-1,3-thiazol-5-yl]-N-methyl-3-oxo-2,3-dihydro-1H-isoindole-4-sulfonamide] | 0.7 | 1.2 | 11 | 85 |
| CNS(=O)(=O)c1cc(-c2sc(Nc3cccc(N4C(=O)CC[C@@H]4CO)n3)nc2C)cc2c1C(=O)N([C@@H](C)C1CC1)C2 [Example 58, 2-[(1S)-1-Cyclopropylethyl]-6-[2-({6-[(2R)-2-(hydroxymethyl)-5-oxopyrrolidin-1-yl]pyridin-2-yl}amino)-4-methyl-1,3-thiazol-5-yl]-N-methyl-3-oxo-2,3-dihydro-1H-isoindole-4-sulfonamide] | 2.9 | 1.2 | 43 | 998 |
| CNS(=O)(=O)c1cc(-c2sc(Nc3cccc(N4CCN(CCO)CC4=O)n3)nc2C)cc2c1C(=O)N([C@@H](C)C1CC1)C2 [Example 59, 2-[(1S)-1-Cyclopropylethyl]-6-[2-({6-[4-(2-hydroxyethyl)-2-oxopiperazin-1-yl]pyridin-2-yl}amino)-4-methyl-1,3-thiazol-5-yl]-N-methyl-3-oxo-2,3-dihydro-1H-isoindole-4-sulfonamide] | 0.7 | 0.9 | 27 | 481 |
| Cc1nc(Nc2cccc(N3CC[C@H](O)C3=O)n2)sc1-c1cc2c(c(S(=O)(=O)NC(C)C)c1)C(=O)N([C@@H](C)C(F)(F)F)C2 [Example 60, 6-[2-({6-[(3S)-3-Hydroxy-2-oxopyrrolidin-1-yl]pyridin-2-yl}amino)-4-methyl-1,3-thiazol-5-yl]-3-oxo-N-(propan-2-yl)-2-[(2S)-1,1,1-trifluoropropan-2-yl]-2,3-dihydro-1H-isoindole-4-sulfonamide] | 0.5 | 1.2 | 57 | 322 |
| CC[C@H](C)N1Cc2cc(-c3sc(Nc4cccc(N5CCOCC5=O)n4)nc3C)cc(S(=O)(=O)NC)c2C1=O [Example 62, 2-[(2S)-Butan-2-yl]-N-methyl-6-(4-methyl-2-{[6-(3-oxomorpholin-4-yl)pyridin-2-yl]amino}-1,3-thiazol-5-yl)-3-oxo-2,3-dihydro-1H-isoindole-4-sulfonamide] | 2.1 | 0.8 | 162 | 1150 |
| CNS(=O)(=O)c1cc(-c2sc(Nc3cccc(N4CCNC4=O)n3)nc2C)cc2c1C(=O)N([C@@H](C)C(F)(F)F)C2 [Example 63, N-Methyl-6-(4-methyl-2-{[6-(2-oxoimidazolidin-1-yl)pyridin-2-yl]amino}-1,3-thiazol-5-yl)-3-oxo-2-[(2S)-1,1,1-trifluoropropan-2-yl]-2,3-dihydro-1H-isoindole-4-sulfonamide] | 0.7 | 1.2 | 32 | 274 |
